The source of these data is PubChem BioAssay (NCI).

What all share (test): DTP human tumour cell line panel, 48 h
Assay [1] concerns OVCAR-4 ovarian.
For assay [2], the system named is SNB-75 CNS.
Assay [3] deals with NCI-H226 lung.
In assay [4] the test system is SF-539 CNS.
Assay [5] has as its system K-562 leukemia.
Assay [6] concerns CAKI-1 renal.
Assay [7] deals with MCF7 breast.
Assay [8] has as its system ACHN renal.

SMILES strings stand for the structures.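 1) Cells in 96-well plates. 2) Compound, 48 h, 5 concentrations. 3) Linear interpolation between surrounding doses. 4) Unreached endpoint = highest concentration. Here, GI50 denotes the concentration required for 50% inhibition of growth. The concentration for full growth arrest is given as TGI.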

The term GI50 denotes the concentration giving 50% growth inhibition. The TGI is the concentration giving total growth inhibition. In the case of `Cc1cccc2c(Nc3ccc(NS(C)(=O)=O)cc3)c3ccc([N+](=O)[O-])cc3nc12`, the GI50 is 1.9 µM in assay [1]; 1.12 µM in assay [2]; 0.755 µM in assay [3]; 1.07 µM in assay [4]; 2.04 µM in assay [5]; 2.43 µM in assay [6]. Also, the GI50 in assay [7] was 0.0382 µM; in assay [8], 0.661 µM. Also, the total growth inhibition concentration (TGI) in assay [1] amounted to 6.38 µM; in assay [2], 5.93 µM; in assay [3] it was 4.08 µM; in assay [4], 11.4 µM; in assay [5] it was 14 µM; in assay [6], 24 µM. The TGI in assay [7] is 3.58 µM; in assay [8], 4.13 µM.

Turning to `Brc1cccc(-c2cc(-c3ccc4nccnc4c3)[nH]n2)c1`, the GI50 in assay [1] was 2.05 µM; in assay [2], 0.674 µM; in assay [4], 0.764 µM; in assay [5] it was 0.215 µM; in assay [6] it was 0.599 µM; in assay [7], 0.413 µM. In assay [8], the GI50 was 1.72 µM. Further, the TGI is > 250 µM in assay [1]; 2.38 µM in assay [2]; > 250 µM in assay [3]; 3.28 µM in assay [4]; > 250 µM in assay [5]; > 250 µM in assay [6]. For the same compound, the TGI in assay [7] and in assay [8] was > 250 µM in each case.

Take `COc1cccc(CC(C)=C(c2ccc(OCCCN(C)C)cc2)c2ccc(OCCCN(C)C)cc2)c1`: the GI50 in assay [1] is 0.575 µM; in assay [2], 0.619 µM; in assay [3] it was 2.84 µM; in assay [4], 0.437 µM; in assay [5], 0.484 µM; in assay [6], 0.683 µM. Further, the GI50 in assay [7] was 0.441 µM; in assay [8], 0.501 µM. The TGI is 1.41 µM in assay [1]; 1.77 µM in assay [2]; 6.95 µM in assay [3]; 0.801 µM in assay [4]; 1.16 µM in assay [5]; 1.95 µM in assay [6]. Besides, the TGI in assay [7] turned out to be 0.859 µM; in assay [8], 0.991 µM.

With `COc1ccc2c(c1)C(=O)c1c-2c(N2CCNCC2)nc2ccccc12`, the GI50 in assay [1] was 9.93 µM; in assay [2] it was 10.9 µM; in assay [3], 10.9 µM; in assay [4] it was 3.8 µM; in assay [5], 2.64 µM; in assay [6], 11.5 µM. Moreover, the GI50 is 1.28 µM in assay [7] and 2.78 µM in assay [8]. The TGI in assay [1] is 27.1 µM; in assay [2] it was 26.5 µM; in assay [3], 28.9 µM; in assay [4] it was 12.7 µM; in assay [5], > 100 µM; in assay [6], 30.3 µM. Also, the concentration for total growth inhibition (TGI) was found to be 2.58 µM in assay [7] and 8.24 µM in assay [8].

Turning to `NC(=O)c1cccc(-c2cc(C(N)=O)ccc2Cl)c1`, the GI50 in assay [1] is 9.21 µM; in assay [2], 1.1 µM; in assay [3] it was 13.4 µM; in assay [4], 1.65 µM; in assay [5], 0.36 µM; in assay [6], 2.66 µM. The GI50 was 1.01 µM in assay [7] and 6.46 µM in assay [8]. Besides, the TGI in assay [1] is > 100 µM; in assay [2], 5.5 µM; in assay [3], > 100 µM; in assay [4], 4.85 µM; in assay [5], > 100 µM; in assay [6] it was > 100 µM. In addition, the concentration for total growth inhibition (TGI) in assay [7] and in assay [8] was > 100 µM each time.

Consider `CCOC(=O)C1=C(C)N2C(=NC3=C(CCC/C3=C\c3ccc(Cl)cc3)C2c2ccc(Cl)cc2)S1` (stereo not drawn), for which the GI50 was 2.85 µM in assay [1]; 9.11 µM in assay [2]; 3.04 µM in assay [3]; 3.88 µM in assay [4]; 3.45 µM in assay [5]; 5.08 µM in assay [6]. Besides, the GI50 in assay [7] was 2.44 µM; in assay [8], 3.64 µM. Moreover, the TGI in assay [1] is 19.2 µM; in assay [2], 51.3 µM; in assay [3], 8.8 µM; in assay [4], > 100 µM; in assay [5], 11.8 µM; in assay [6], > 100 µM. The figures for the TGI in assay [7] and in assay [8] were 11 µM and 33.6 µM, respectively.

With `C=CCCCOC1[C@H](OCc2ccccc2)C(OCc2ccccc2)C(OC)O[C@@H]1CNC(=O)c1cccc(I)c1` (stereo partly drawn), the GI50 in assay [1] is 14.4 µM; in assay [2], 3.91 µM; in assay [3], 21.9 µM; in assay [4], 4.38 µM; in assay [5] it was 2.7 µM; in assay [6], 11.5 µM. Also, the GI50 in assay [7] was 3.5 µM; in assay [8] it was 5.76 µM. Also, the TGI in assay [1] was > 100 µM; in assay [2] it was 56.5 µM; in assay [3] it was > 100 µM; in assay [4] it was 76.4 µM; in assay [5] it was > 100 µM; in assay [6], > 100 µM. The TGI in assay [7] and in assay [8] was > 100 µM throughout.

In the case of `CC(=O)O.CC(=O)O.CC(=O)O.CC(=O)O.[Rh].[Rh]`, the GI50 is 37 µM in assay [1]; 30.5 µM in assay [2]; 22 µM in assay [3]; 26.4 µM in assay [4]; 18.5 µM in assay [5]; 12.2 µM in assay [6]. For the same compound, the GI50 in assay [7] is 27.2 µM; in assay [8], 24.9 µM. Further, the TGI in assay [1] is > 100 µM; in assay [2] it was > 100 µM; in assay [3] it was 99.2 µM; in assay [4], 88.4 µM; in assay [5], 56.2 µM; in assay [6], 30.7 µM. Further, the TGI in assay [7] and in assay [8] was > 100 µM each time.

As for `O=C1CSC(c2ccccc2O)N1c1nnc(Cn2ccnc2)o1` (stereo not drawn), the GI50 in assay [1] is 4.51 µM; in assay [2] it was 11.6 µM; in assay [3], 37.2 µM; in assay [4], 8.83 µM; in assay [5] it was 4.36 µM; in assay [6], 2.19 µM. Also, the GI50 in assay [7] is 5.43 µM; in assay [8], 4.96 µM. The TGI in assay [1] is 37.2 µM; in assay [2], > 100 µM; in assay [3] it was > 100 µM; in assay [4], 68.5 µM; in assay [5], > 100 µM; in assay [6] it was 10.2 µM. Also, the TGI was 23.5 µM in assay [7] and > 100 µM in assay [8].
